Here are results for five molecules from patent US9464098B2, “Substituted triazole boronic acid compounds” (Hoffmann-La Roche Inc., priority 2012, dated 2016).

In assay [1] the target is T1, β 5i (chymotrypsin-like activity) (Homo sapiens, UniProt P20618+P28062).
T1 construct: protease activity associated with the proteasome complex in cultured cells; endogenous in cells; host or cells: Ramos cells
The experiment in a line: Cell-Based Proteasome Activity/Selectivity Assay (Ramos cells), substrate (ANW)2Rh110. Conditions: β 5i substrate (ANW)2Rh110, highest concentration tested 20 μM, read-out: Ic50: ramos:ac-(anw)2-r110. The source says:
(§1) Cell-Based Proteasome Activity/Selectivity Assay
(§2) The Cell-Based Proteasome subunit activity/selectivity assay was a panel of 5 fluorogenic assays that independently measured the activity of β5c or β 5i (chymotrypsin-like activity), β 2c/2i (trypsin-like), and β 1c or β 1i (caspase-like) protease activity associated with the proteasome complex in cultured cells. Specifically, the following substrates were used for respective subunit activities: β 1i: (PAL)2Rh110, β 1c: (LLE)2Rh110, β 2c/2i: (KQL)2Rh110, β 5c: (WLA)2Rh110, β 5i: (ANW)2Rh110. The following procedure was followed:
(§3) Cell preparation: Plated 25 μl of Ramos cells (2×10^6/ml in DPBS) into half area plate (PerkinElmer Cat 6005569) to final 5×10^4 cells/well. Added 0.5 μl of 100× 4-fold serial diluted test compounds or DMSO to each well. Highest concentration of compound tested was 20 μM, thus compound serial dilution started from […]. Incubated for 30 minutes at 37° C. Then equilibrated at room temperature for 15 minutes. Added 25 μl of 2× reaction mix consisting of 0.025% digitonin, 20 μM of each substrates and 0.5M sucrose in DPBS. Shaked for one minute @ 700 rpm. Incubated for 120 min at room temperature. Then read the plates with an Envision multilabel plate reader (PerkinElmer) with 500 nm excitation/519 nm emission.

Assay [2] addresses T2, β5c (chymotrypsin-like activity) (Homo sapiens, UniProt P20618+P28074).
T2 construct: protease activity associated with the proteasome complex in cultured cells; endogenous in cells; host or cells: Ramos cells
The experiment in a line: Cell-Based Proteasome Activity/Selectivity Assay (Ramos cells), substrate (WLA)2Rh110. The conditions noted are these: β 5c substrate (WLA)2Rh110, highest concentration tested 20 μM.
Source text: as §1, §2, §3

The test system of a further assay is β 2c/2i (trypsin-like). Briefly: Cell-Based Proteasome Activity/Selectivity Assay (Ramos cells), substrate (KQL)2Rh110. The conditions noted are these: β 2c/2i substrate (KQL)2Rh110, highest concentration tested 20 μM.
Source text: as §1, §2, §3

Another assay deals with T3, β 1i (caspase-like) (Homo sapiens, UniProt P28065+P40306).
T3 construct: protease activity associated with the proteasome complex in cultured cells; endogenous in cells; host or cells: Ramos cells
The experiment in a line: Cell-Based Proteasome Activity/Selectivity Assay (Ramos cells), substrate (PAL)2Rh110. The conditions noted are these: β 1i substrate (PAL)2Rh110, highest concentration tested 20 μM.
Source text: as §1, §2, §3

The next assay has as its target T4, β 1c (caspase-like) (Homo sapiens, UniProt P28072+Q99436).
T4 construct: protease activity associated with the proteasome complex in cultured cells; endogenous in cells; host or cells: Ramos cells
Briefly: Cell-Based Proteasome Activity/Selectivity Assay (Ramos cells), substrate (LLE)2Rh110. The conditions noted are these: β 1c substrate (LLE)2Rh110, highest concentration tested 20 μM.
Source text: as §1, §2, §3

Assay [3] deals with IP10 level in PBMCs stimulated with CpG Type A. Briefly: PBMC IP-10 Assay. It is filed as cell-based. Conditions: PBMCs stimulated with CpG Type A 2.5 μM, overnight, IP10 AlphaLISA. Here is the method: PBMCs were isolated from whole blood as follows: Blood was collected in a sterile environment in heparinized tubes. Blood was diluted with an equal volume PBS/2% FCS and 30 ml of this mixture was added to ACCUSPIN tubes containing 15 ml Histopaque-1077 already centrifuged at 800 g for 30 seconds and warmed up at room temperature. The tubes were then centrifuged at 800 g for 20 minutes at room temperature with no brake. The mononuclear band, just above the polyethylene frit, was removed by Pasteur pipet. These mononuclear cells were washed three times with sterile PBS, counted, and resuspended in RPMI 1640 supplemented with 10% heat inactivated fetal calf serum, 10 mM HEPES, 1 mM sodium pyruvate, penicillin (50 U/ml), streptomycin (50 μg/ml) and glutamine (2 mM) to approximately 1.5×10^6/ml. Approximately 2×10^5 cells/well were plated in 96 well tissue culture plates (BD Falcon 353072), and preincubated 60 mi/37° C. with a titration of compounds, in a final concentration of 1% DMSO. Cells were then stimulated with CpG Type A (Invivogen, Cat # tlrl-2216; ODN 2216) at a final concentration of 2.5 μM. Cells were incubated overnight, and supernatants were removed. PBMC viability of cells remaining in the well was measured with ATPlite luminescence assay (Perkin-Elmer) per the manufacturer's instructions. Luminescence was measured on the Perkin-Elmer Envision, using the luminescence filter. IP10 level was measured with CXCL10/IP10 AlphaLISA kit (Perkin-Elmer) per the manufacturer's instructions, except halving all volumes. Fluorescence was measured on the Envision Multilabel plate reader, using the AlphaScreen standard settings.
(In general: In Alpha technology, singlet oxygen from a donor bead excites a nearby acceptor bead.)

Assay [4] has as its system Th1/17 differentiation, B cell effector functions and production of inflammatory cytokines (IL-6, TNF-α, IL-23). The conditions noted are these: cited from earlier work.
The subject of assay [5] is mouse CAIA and CIA arthritis models. Conditions: cited from earlier work.
In a further assay the test system is MRL/lpr lupus-prone mice. The conditions noted are these: cited from earlier work.
Assay [6] concerns DSS-induced colitis model in mice. The conditions noted are these: cited from earlier work.

The IC50 is the point on the concentration scale where inhibition reaches its midpoint. What is called EC50 is the midpoint of the concentration-response curve. Read a low EC50 as greater potency. With `COc1ccc(C(=O)NCCn2cc(C(=O)N[C@@H](CC(C)C)B(O)O)nn2)c(OC)c1OC` [Example 1, (R)-3-Methyl-1-(1-(2-(2,3,4-trimethoxybenzamido)ethyl)-1H-1,2,3-triazole-4-carboxamido)butylboronic acid], the IC50 was 2 nM in [1]; 39 nM in [2]; over 20000 nM in the assay on β 2c/2i (trypsin-like); 4 nM against β 1i (caspase-like); 320 nM on β 1c (caspase-like). In [3], this molecule showed an EC50 of 29.5 nM.
Regarding `COc1ccc(C(=O)NCCn2cc(C(=O)N[C@@H](Cc3ccccc3)B(O)O)nn2)c(OC)c1OC` [Example 2, (R)-2-Phenyl-1-(1-(2-(2,3,4-trimethoxybenzamido)ethyl)-1H-1,2,3-triazole-4-carboxamido)ethylboronic acid], the IC50 stood at 7 nM in assay [1]; 16 nM in assay [2]; 13500 nM with β 2c/2i (trypsin-like); 25 nM against β 1i (caspase-like); 6630 nM on β 1c (caspase-like). Besides, a half-maximal response in assay [3] (EC50) required 33.7 nM.
As to `O=C(N[C@@H](Cc1ccccc1)B(O)O)c1cn(CCNC(=O)c2ccc(C(F)(F)F)cc2F)nn1` [Example 3, (R)-1-(1-(2-(2-Fluoro-4-(trifluoromethyl)benzamido)ethyl)-1H-1,2,3-triazole-4-carboxamido)-2-phenylethylboronic acid], the half-maximal inhibitory concentration (IC50) in assay [1] is 2 nM; in assay [2] it was 6 nM; with β 2c/2i (trypsin-like), over 20000 nM; on β 1i (caspase-like) it was 10 nM; against β 1c (caspase-like) it was 7340 nM. This molecule also displayed a concentration giving a half-maximal response (EC50) in [3] of 26.8 nM.
For the molecule `COc1cc(C(F)(F)F)ccc1C(=O)NCCn1cc(C(=O)N[C@@H](Cc2ccccc2)B(O)O)nn1` [Example 4, (R)-1-(1-(2-(2-Methoxy-4-(trifluoromethyl)benzamido)ethyl)-1H-1,2,3-triazole-4-carboxamido)-2-phenylethylboronic acid], the IC50 was 2 nM in assay [1]; 20 nM in assay [2]; over 20000 nM with β 2c/2i (trypsin-like); 9 nM against β 1i (caspase-like); 7480 nM at β 1c (caspase-like). In assay [3], this molecule had an EC50 of 12.2 nM.
As to `COc1ccc(C[C@H](NC(=O)[C@H](C)NC(=O)CN2CCOCC2)C(=O)N[C@@H](Cc2ccccc2)C(=O)[C@@]2(C)CO2)cc1` [PR-957], in assay [4], the “block of Th1/17 differentiation, B cell effector functions and production of inflammatory cytokines” value was “potently block”. The disease score result in assay [5] is listed as “significantly decrease disease score”. In the assay on MRL/lpr lupus-prone mice, the disease progression result is “prevented disease progression”; the “plasma cells numbers and levels of anti-dsDNA IgG” value is “reduced plasma cells numbers and levels of anti-dsDNA IgG”. In [6], the “inflammation and tissue destruction” value was “reduced inflammation and tissue destruction”.
